Tests used:
Assay type in all cases: in vivo
Chilo suppressalis [1] = experiment: B.3b Rice striped stem borer, foliar spraying
Description: All three pots (=replicates) of four to five-week old potted rice per treatment were simultaneously sprayed with 12 mL test solution. After spray application, plants were air dried in the laboratory before inoculation. After air-drying, 5 to 6-day old egg masses of CHILSU were used for inoculation. All stem borer-infested potted rice plants were transferred inside the screenhouse 1 day after inoculation until the final assessment. […] Whole plant damage was assessed before cutting each hill at the basal portion for tiller dissection. Each dissected tiller was inspected looking for dead (if possible) and alive stemborer larvae.

Chilo suppressalis [2] = experiment: B.3a Rice stem borer vial bioassay; settings: 72 h
Description: Field-collected rice straws were washed with tap water and cut for a certain of length. Straws were air dried before placing individually in vials (=replicate, 3×). About 125 μl test solution was sprayed per vial. Treated rice straws in vials were air dried under the laboratory hood. After air-drying, each straw was inoculated with 10 newly-emerged (0-day old) stem borer larvae. Vials were then covered. Set-up was kept in a holding room maintained at 27° C. and 65% RH for three days. At 3 days after inoculation, rice straws were manually dissected for larval mortality assessment. The data (Table C) show activity against two species of rice stem borers.

[3] = system: Greenhouse Whitefly (Trialeurodes vaporariorum); experiment: Test 11 Greenhouse Whitefly, egg plant leaf disk (mixtures)
Description: For evaluating control of Greenhouse Whitefly (Trialeurodes vaporariorum) the test unit consisted of 96-well-microtiter plates containing a leaf disk of egg plant leaf disk with white fly eggs.
The compounds or mixtures were formulated using a solution containing 75% water and 25% DMSO. Different concentrations of formulated compounds or mixtures were sprayed onto the insect diet at 2.5 μl, using a custom built micro atomizer, at two replications.
(§1) For experimental mixtures in these tests identical volumes of both mixing partners at the desired concentrations respectively, were mixed together.
After application, microtiter plates were incubated at 23±1° C., 65±5% RH for 6 days. Mortality of hatched crawlers was then visually assessed.

[4] = system: Cowpea aphid (Aphis craccivora); experiment: B.3 Cowpea aphid leaf disk test; settings: foliar, 120 h
Description: If not otherwise specified, the test solutions are prepared as follows:
The active compound is dissolved at the desired concentration in a mixture of 1:1 (vol:vol) distilled water: acetone. The test solution is prepared at the day of use.
B.3 Cowpea aphid (Aphis craccivora):
For evaluating control of Cowpea aphid through contact or systemic means the test unit consists of 24-well-microtiter plates containing broad bean leaf disks.
The compounds are formulated using a solution containing 75% v/v water and 25% v/v DMSO. Different concentrations of formulated compounds are sprayed onto the leaf disks at 2.5 μl, using a custom built micro atomizer, at two replications.
After application, the leaf disks are air-dried and 5-8 adult aphids placed on the leaf disks inside the microtiter plate wells. The aphids are then allowed to suck on the treated leaf disks and incubated at about 23±1° C. and about 50±5% relative humidity for 5 days. Aphid mortality and fecundity is then visually assessed.

[5] = system: tobacco budworm (Heliothis virescens); experiment: Test 4 tobacco budworm, insect diet with eggs (mixtures)
Description: For evaluating control of tobacco budworm (Heliothis virescens) the test unit consisted of 96-well-microtiter plates containing an insect diet and 15-25 H. virescens eggs.
The compounds or mixtures were formulated using a solution containing 75% water and 25% DMSO. Concentrations of formulated compounds or mixtures were sprayed onto the insect diet at 10 μl, using a custom built micro atomizer, at two replications.
as §1
After application, microtiter plates were incubated at 28±1° C., 80±5% RH for 5 days. Egg and larval mortality was then visually assessed.

[6] = system: vetch aphid (Megoura viciae); experiment: Test 1 vetch aphid, leaf disks (mixtures); settings: Table 1, solo application I-R-1, use rate 20 ppm
Excerpt: Synergism can be described as an interaction where the combined effect of two or more compounds is greater than the sum of the individual effects of each of the compounds. The presence of a synergistic effect in terms of percent control, between two mixing partners (X and Y) can be calculated using the Colby equation (Colby, S. R., 1967, Calculating Synergistic and Antagonistic Responses in Herbicide Combinations, Weeds, 15, 20-22):
When the observed combined control effect is greater than the expected combined control effect (E), then the combined effect is synergistic.
The analysis of synergism or antagonism between the mixtures or compositions was determined using Colby's equation.
For evaluating control of vetch aphid (Megoura viciae) through contact or systemic means the test unit consisted of 24-well-microtiter plates containing broad bean leaf disks.
The compounds or mixtures were formulated using a solution containing 75% water and 25% DMSO. Concentrations of formulated compounds or mixtures were sprayed onto the leaf disks at 2.5 μl, using a custom built micro atomizer, at two replications. […]
After application, the leaf disks were air-dried and 5-8 adult aphids placed on the leaf disks inside the microtiter plate wells. […] Aphid mortality and fecundity was then visually assessed.

[7] = system: Thrips (Dichromothrips corbetti); experiment: B.4 Thrips floral-immersion test; settings: 72 h
Description: B.4 Thrips (Dichromothrips Corbetti):
Dichromothrips corbetti adults used for bioassay are obtained from a colony maintained continuously under laboratory conditions. For testing purposes, the test compound is diluted in a 1:1 mixture of acetone:water (vol:vol), plus 0.01% vol/vol Alkamuls® EL 620 surfactant.
Thrips potency of each compound is evaluated by using a floral-immersion technique. Plastic petri dishes are used as test arenas. All petals of individual, intact orchid flowers are dipped into treatment solution and allowed to dry. Treated flowers are placed into individual petri dishes along with about 20 adult thrips. The petri dishes v then covered with lids. All test arenas are held under continuous light and a temperature of about 28° C. for duration of the assay. After 3 days, the numbers of live thrips are counted on each flower, and along inner walls of each petri dish. The percent mortality is recorded 72 hours after treatment.

[8] = system: Rice brown plant hopper (Nilaparvata lugens); experiment: B.2 Rice brown plant hopper, sprayed rice seedlings; settings: 72 h
Description: B.2 Rice Brown Plant Hopper (Nilaparvata lugens):
Rice seedlings are cleaned and washed 24 hours before spraying. The active compounds are formulated in 50:50 acetone:water (vol:vol) and 0.1% vol/vol surfactant (EL 620) is added. Potted rice seedlings are sprayed with 5 ml test solution, air dried, placed in cages and inoculated with 10 adults. Treated rice plants are kept at about 28-29° C. and relative humidity of about 50-60%. Percent mortality is recorded after 72 hours.

In the case of C[n+]1c([O-])c(-c2ccccc2)c(=O)n2c1SC[C@@H]2c1cnc(Cl)s1 [I-R-1, (3R)-3-(2-chlorothiazol-5-yl)-8-methyl-7-oxo-6-phenyl-2,3-dihydrothiazolo[3,2-a]pyrimidin-4-ium-5-olate], the “Feeding damage (%)” value (Chilo suppressalis [1]; Chilo suppressalis neonates, foliar spraying, Dose 200 ppm, 14 DAT) is reported as 7%, the mortality at 200 ppm (Chilo suppressalis [1]; Chilo suppressalis, foliar, 336 h) is reported as 99% and the mortality at 300 ppm (Chilo suppressalis [2]) is reported as 83%. It also gave an Average control % ([3]; Table 11.1, solo application I-R-1, use rate 50 ppm) of 25%, an Average control % ([3]; Table 11.2, solo application I-R-1, use rate 10 ppm) of 0% and a mortality at 1 ppm [4] of 90%. The Average control % ([5]; Table 4.1, solo application I-R-1, use rate 10 ppm) was 0%, the Average control % ([5]; Table 4.2, solo application I-R-1, use rate 0.4 ppm) was 0% and the Average control % [6] was 0%. The mortality at 10 ppm [7] was 100% and the mortality at 1 ppm [8] was 90%.

From patent US11578083B2, “Pyrimidinium compounds and their mixtures for combating animal pests” (BASF SE, priority 2017, dated 2023)
